Data from US8202877B2, “Aminopyrimidinamides as pesticides” (Bayer CropScience AG, priority 2009, dated 2012).

Test system: not listed separately
Experiment: logP (HCOOH), physicochemical characterization
Conditions: not given

Compound	logP (HCOOH)
CCc1ncccc1C(=O)Nc1c(NC2CC2)ncnc1-c1ccc(F)cc1Cl [1-139]	0.79
CCc1ncccc1C(=O)Nc1c(NC2CC2)ncnc1-c1ccc(C#N)cc1 [1-133]	1.10
CCc1ncccc1C(=O)Nc1c(NC2CC2)nc(C)nc1-c1ccc(F)cc1F [1-278]	1
O=C(Nc1c(NC2CC2)ncnc1-c1ccc(Cl)cc1)c1ccnn1-c1ccccc1Cl [9-4]	2.05
Cc1ncccc1C(=O)Nc1c(NC2CC2)ncnc1-c1ccc(F)cc1 [1-1]	0.71
CCc1ncccc1C(=O)Nc1c(NC2CC2)nc(C)nc1-c1ccc(F)cc1 [1-276]	0.88
CCc1ncccc1C(=O)Nc1c(NC2CC2)ncnc1-c1ccc(F)cc1C [1-180]	1.10
CCc1ncccc1C(=O)Nc1c(NC2CC2)ncnc1-c1ccc(Cl)cc1C [1-188]	1.40
O=C(Nc1c(NC2CC2)ncnc1-c1ccc(F)cc1)c1ccnn1-c1ccc(F)cc1 [9-1]	1.70
CCCc1ncccc1C(=O)Nc1c(NC2CC2)ncnc1-c1ccc(Cn2nc(C(F)(F)F)nc2C(F)(F)F)cc1 [1-264]	1.9
O=C(Nc1c(NC2CC2)ncnc1-c1ccc(F)cc1)c1ccnn1-c1ccc(Cl)cc1 [9-2]	2.02
O=C(Nc1c(NC2CC2)ncnc1-c1ccc(F)cc1)c1ccnn1-c1ccccc1Cl [9-3]	1.76
CCc1ncccc1C(=O)Nc1c(NC2CC2)ncnc1-c1ccc(SC(F)(F)F)cc1 [1-114]	1.4
CCc1ncccc1C(=O)Nc1c(NC2CC2)ncnc1-c1ccccc1C [1-182]	0.94
CCc1ncccc1C(=O)Nc1c(NC2CC2)nc(C)nc1-c1ccccc1 [1-275]	0.76
CCOc1ncccc1C(=O)Nc1c(NC2CC2)ncnc1-c1ccc(C#N)cc1 [1-160]	1.80
O=C(Nc1c(NC2CC2)ncnc1-c1ccc(Cl)cc1)c1c(F)cccc1Cl [1-263]	2.20
CCc1ncccc1C(=O)Nc1c(Br)ncnc1NC1CC1 [3-3]	0.84
O=C(Nc1c(NC2CC2)ncnc1-c1ccccc1)c1cccnc1 [1-128]	0.63

Test system: Spodoptera litura third instar larvae
Experiment: not given
Conditions: active compound concentration of 100 ppm; sweet potato leaves immersed; after 7 days

Compound	insecticidal activity [%]
CCCc1ncccc1C(=O)Nc1c(NC2CC2)ncnc1-c1ccc(Cl)cc1Cl [1-244]	100
CCc1ncccc1C(=O)Nc1c(NC2CC2)nc(C(F)(F)F)nc1-c1ccc(F)cc1 [1-313]	100
CCc1ncccc1C(=O)Nc1c(NC2CC2)ncnc1-c1ccc(Oc2ncc(C(F)(F)F)cc2Cl)cc1 [1-310]	100
CCCc1ncccc1C(=O)Nc1c(NC2CC2)ncnc1-c1ccc(F)cc1 [1-238]	100
O=C(Nc1c(NC2CC2)ncnc1-c1ccc(Cn2nc(C(F)(F)F)nc2C(F)(F)F)cc1)c1cccnc1C1CC1 [1-259]	100
CCc1ncccc1C(=O)Nc1c(NC2CC2)ncnc1-c1ccc(Cn2nc(C(F)(F)C(F)(F)F)cc2C(F)(F)F)cc1 [1-247]	100
CCCc1ncccc1C(=O)Nc1c(NC2CC2)ncnc1-c1ccc(Cl)cc1 [1-239]	100
CCc1ncccc1C(=O)Nc1c(NC2CC2)ncnc1-c1ccc(Cn2nc(C(F)(F)F)cc2C(F)(F)F)cc1 [1-268]	100
CCCc1ncccc1C(=O)Nc1c(NC2CC2)ncnc1-c1ccc(F)cc1F [1-245]	100
O=C(Nc1c(NC2CC2)nc(C(F)(F)F)nc1-c1ccc(F)cc1)c1cccnc1CC(F)(F)F [1-324]	100
CCc1ncccc1C(=O)Nc1c(NC2CC2)ncnc1-c1ccc(Cc2n[nH]c(C(F)(F)C(F)(F)C(F)(F)F)n2)cc1 [1-319]	100
CCc1ncccc1C(=O)Nc1c(NC2CC2)nc(Cl)nc1-c1ccc(F)cc1 [1-326]	100
CCc1ncccc1C(=O)Nc1c(NC2CC2)ncnc1-c1ccc(Oc2cccc(C(F)(F)F)n2)cc1 [1-312]	100
CCc1ncccc1C(=O)Nc1c(NC2CC2)ncnc1-c1ccc(Oc2ncccc2C(F)(F)F)cc1 [1-311]	100
CCc1ccccc1C(=O)Nc1c(NC2CC2)ncnc1-c1ccc(OC(F)(F)F)cc1 [1-257]	100
CCc1ncccc1C(=O)Nc1c(NC2CC2)ncnc1-c1ccc(Cn2nc(C(F)(F)C(F)(F)F)cc2C(F)(F)C(F)(F)F)cc1 [1-269]	100
CCc1ncccc1C(=O)Nc1c(NC2CC2)ncnc1-c1ccc(Cn2nc(C(F)(F)F)nc2C(F)(F)F)cc1 [1-258]	100
O=C(Nc1c(NC2CC2)ncnc1-c1ccc(Cn2nc(C(F)(F)C(F)(F)F)cc2C(F)(F)F)cc1)c1cccnc1C1CC1 [1-253]	100
O=C(Nc1c(NC2CC2)ncnc1-c1ccccc1)c1cccnc1C1CC1 [1-234]	100
CCc1ncccc1C(=O)Nc1c(NC2CC2)ncnc1-c1ccc(Cl)cc1 [1-177, N-[4-(4-Chlorophenyl)-6-cyclopropylaminopyrimidin-5-yl]-2-ethylnicotinamide]	100
CCc1ncccc1C(=O)Nc1c(NC2CC2)ncnc1-c1ccc(Oc2nc(C(F)(F)F)cc(C(F)(F)C(F)(F)F)n2)cc1 [1-317]	100

Compound	insecticidal activity [%]
CCCc1ncccc1C(=O)Nc1c(NC2CC2)ncnc1-c1ccc(Cn2nc(C(F)(F)F)nc2C(F)(F)F)cc1 [1-264]	100
O=C(Nc1c(NC2CC2)ncnc1-c1ccc(F)cc1F)c1cccnc1CC(F)(F)F [1-254]	100
CCCc1ncccc1C(=O)Nc1c(NC2CC2)ncnc1-c1ccc(C#N)cc1 [1-246]	100
CCc1ncccc1C(=O)Nc1c(NC2CC2)ncnc1-c1ccc(Cn2ccc(C(F)(F)C(F)(F)F)n2)cc1 [1-266]	100
CCc1ncccc1C(=O)Nc1c(NC2CC2)ncnc1-c1ccc(Cc2nc(C(F)(F)C(F)(F)C(F)(F)F)n(C)n2)cc1 [1-318]	100
O=C(Nc1c(NC2CC2)ncnc1-c1ccc(F)cc1F)c1cccnc1C1CC1 [1-240]	100
CCc1ncccc1C(=O)Nc1c(NC2CC2)ncnc1-c1ccc(C(F)(C(F)(F)F)C(F)(F)F)cc1 [1-232]	100
O=C(Nc1c(NC2CC2)ncnc1-c1ccc(Cl)cc1)c1cccnc1C(F)(F)C(F)(F)F [1-241]	100
CCc1ccccc1C(=O)Nc1c(NC2CC2)ncnc1-c1ccc(Cn2nc(C(F)(F)F)nc2C(F)(F)F)cc1 [1-265]	100
O=C(Nc1c(NC2CC2)ncnc1-c1ccc(F)cc1)c1cccnc1C1CC1 [1-235]	100
CCc1ccccc1C(=O)Nc1c(NC2CC2)ncnc1-c1ccc(Cn2cnc(C(F)(F)F)n2)cc1 [1-286]	100
CCc1ncccc1C(=O)Nc1c(Cl)ncnc1Nc1ccc(F)cc1 [5-2]	100
CCCc1ncccc1C(=O)Nc1c(NC2CC2)ncnc1-c1ccccc1 [1-237]	100
N#Cc1ccc(-c2ncnc(NC3CC3)c2NC(=O)c2cccnc2C2CC2)cc1 [1-242]	100
O=C(Nc1c(NC2CC2)ncnc1-c1ccc(OC(F)(F)F)cc1)c1cccnc1C1CC1 [1-243]	100
CCc1ncccc1C(=O)Nc1c(NC2CC2)ncnc1-c1ccc(Cn2ccc(C(F)(F)C(F)(F)C(F)(F)F)n2)cc1 [1-267]	100
O=C(Nc1c(NC2CC2)ncnc1-c1ccc(Cn2nc(C(F)(F)F)cc2C(F)(F)F)cc1)c1cccnc1C1CC1 [1-252]	100
O=C(Nc1c(NC2CC2)nc(Cl)nc1-c1ccc(F)cc1)c1cccnc1CC(F)(F)F [1-325]	100
CCc1ncccc1C(=O)Nc1c(NC2CC2)nc(C(F)(F)F)nc1-c1ccc(F)cc1F [1-314]	100
O=C(Nc1c(NC2CC2)ncnc1-c1ccc(Cl)cc1)c1cccnc1C1CC1 [1-236]	100
